Test results taken from a melting point compilation (Tetko et al.; mined from patent text by program, amines drawn as free bases though some values may be those of a salt).

Row | melting point [°C] | Compound
1 | 266 to 270 | O=C1c2ccccc2C(=O)N1CC(=O)N1c2ccccc2N(Cc2cccc3ccccc23)C(=O)[C@H]2CCC[C@H]21 (relative stereo)
2 | 169 to 170 | COc1ccc(-c2oncc2CCC(=O)O)cc1OC
3 | 55 | C=CC(O)c1ccc([N+](=O)[O-])cc1 (configuration not stated)
4 | 153 to 154 | COc1cc(Cc2cnc(NC(=O)C(C)(C)C)nc2NC(=O)C(C)(C)C)cc(OC)c1OC
5 | 69 to 72 | O=C(NCCCCCCO)OC1CCN(C(=O)Oc2ccc(Oc3ccccc3)cc2)CC1
6 | 176 to 178 | CC(C)c1nc2c(c3c1[nH]c1ccccc13)C(=O)CC(C)(C)C2
7 | 168 to 169 | COc1ccc2c(c1)C(c1ccccc1)NC(=O)N2CC(F)(F)F (configuration not stated)
8 | 158 | COc1cc(N)c(Cl)cc1C(=O)N[C@H]1CCN(CCCNc2ncccn2)C[C@H]1OC (relative stereo)
9 | 201 to 202 | CC1=CC(O)C(OC(=O)c2nc[nH]c2C)C(C)(C)CC1=O (configuration not stated)
10 | > 300 | N#Cc1cnc2c(c1Cl)C=C1N=CN=C1C2
11 | 148 to 149 | CS(=O)c1ccc(C2=C(c3cccc(F)c3)C(=O)C(C)(C)O2)cc1F (configuration not stated)
12 | 174 to 176 | CC(C)n1nc(-c2cc(Br)c(N)nc2-c2ccccc2)ccc1=O
13 | 204 to 208 | Nc1ccc(N2CCN(c3ccncc3)CC2)cc1
14 | 141 to 143 | CCOC(=O)c1cc2c(nc1N)CCN(Cc1ccccc1)C2
15 | 225 to 227 | O=C1N(Cc2sc(C(F)(F)F)cc2O)c2ccccc2C12COc1cc3c(cc12)OCO3 (configuration not stated)
16 | 248 | CS(=O)(=O)c1ccc(-c2nn(Cc3cccnc3)c(=O)cc2-c2ccc(Cl)cc2)cc1
17 | 189 to 190 | CC(C)n1nc(-c2sc(NC(=O)CN3CCCCC3)nc2-c2ccccc2)ccc1=O
18 | 101 to 102 | COc1ccc(N2C(=O)C3=C(CCCC3)C2CC(=O)N2CCCCC2)cc1 (configuration not stated)
19 | 138 to 140 | CN1CCN(c2ccccc2C=C2CCCN(c3ccc(Cl)c(Cl)c3)C2=O)CC1
20 | 148 to 149 | O=C(C=Cc1cccnc1)C=Cc1cccnc1
21 | 78 to 80 | CCCCCCCCn1c(=O)c2c(N3CCN(C)CC3)cc(Cl)cc2n(Cc2ccccc2)c1=O
22 | 180 to 182 | CNc1nc(-c2cccc(NC(=O)CCc3ccccc3)c2)c2cc(OC)c(OC)cc2n1
23 | 116 to 117 | CN1CCC(Cc2ccccc2)(Oc2ccc([N+](=O)[O-])cc2)CC1
24 | 124 to 125 | N#Cc1sc2ccccc2c1Cl
25 | 95 to 97 | COc1ccc(S(=O)(=O)NCCCO)c(OC)c1OC

Row | melting point [°C] | Compound
26 | 39 to 40 | CCCCC(CNc1ncc(OC)c(C)n1)c1ccccc1 (configuration not stated)
27 | 102 to 104 | CN1CCCC[C@H]1C[C@H](O)c1ccc(Br)cc1
28 | 103 to 106 | CCOC(=O)C1(NC=O)Cc2cccc3c2N(CCC3)C1=O (configuration not stated)
29 | 212 | N#Cc1c(N2CCCCC2)cc(-c2ccc(Br)cc2)c2c1Cc1ccccc1-2
30 | 195 to 198 | COC(=O)c1ccc(Cn2ncc3ccc(NC(=O)CC4CCCC4)cc32)c(OC)c1
31 | > 270 | Clc1sc(Cl)c2c1CNC2
32 | 189 to 190 | Cc1sc2ncc(C(=O)/C=C/c3ccccc3)n2c1C
33 | 168 to 169 | CC(N1C(=O)C(=O)N(c2cccc(C#N)c2)C1=S)C(C)(C)C (configuration not stated)
34 | 204 to 207 | O=C1N(Cc2ccc(C(F)(F)F)nc2)c2ccccc2C12COc1cc3c(cc12)OCCO3 (configuration not stated)
35 | 94 | Cc1ccc(CCCCc2ccc(C(=O)C[C@@H](C)CC(=O)O)s2)cc1
36 | 194 to 196 | CC(C)(CO)COc1ccc(N)cc1C#N
37 | 97 to 98 | Fc1ccccc1-c1cc2ccccc2[nH]1
38 | 88 to 90 | CC(C)(C)c1ccc2c(c1)OCC(NNc1ncnc3c1ncn3C1OC(CO)C(O)C1O)C2 (configuration not stated)
39 | 138 to 140 | CN1C[C@H](O)C[C@H]1C(N)=O
40 | 158 to 160 | O=C1NCCN1c1cccc([N+](=O)[O-])c1
41 | > 250 | CC(C)OC(=O)CCc1ccc(-n2ccn(-c3ccc(C(=N)N)cc3)c2=O)cc1
42 | 200 to 201 | Cc1c(CO)c(CO)c2n1Cc1c(c3ccccc3n1C)C2
43 | 177 to 179 | C#CCc1cc(C(O)=S)cc(S(=O)(=O)Cl)c1Oc1ccccc1
44 | 125 to 126 | CCC(CC)O[C@@H]1C=C(C(=O)OC)C[C@H](CC(O)CO)[C@H]1NC(C)=O (some centres not stated)
45 | 112 to 114 | COc1ccc(CC2c3c(cc(OC)c(OC)c3O)CCN2C)cc1 (configuration not stated)
46 | 174 to 175 | CC1(CCSc2nc3ccccc3o2)Cn2cc([N+](=O)[O-])nc2O1 (configuration not stated)
47 | 245 to 250 | Cc1nc[nH]c1C(=O)Nc1ccc(-n2nc(C3CC3)cc2C(F)(F)F)cc1
48 | 219 to 221 | O=C(CCCc1ccccc1)NCC(=O)N1c2ccccc2N(Cc2ccccc2)C(=O)[C@H]2CCC[C@H]21 (relative stereo)
49 | 101 to 102 | CC(F)(F)c1cccc(C[C@H](N)[C@H](O)c2ccc(F)cc2)c1 (racemic)
50 | 190 to 191 | O=C(Nc1cccc(-c2ccnc3c(C(=O)c4cccs4)cnn23)c1)c1ccccc1F

Row | melting point [°C] | Compound
51 | 96 to 102 | Cc1c(-c2ccc(O)cc2)n(Cc2ccc(OCCN(C(C)C)C(C)C)cc2)c2ccc(O)cc12
52 | 79 to 81 | COc1ccc(C(CN)C2CCCCC2O)cc1 (mixture of isomers)
53 | 238 to 240 | O=C(CC1Sc2ccccc2NC1=O)NCc1ccccc1 (configuration not stated)
54 | 81 to 82 | O=Cc1sc(Cl)c(Cl)c1Cl
55 | 118 to 119 | CCOc1cc2c(cc1OCC)C(C(S)(C#N)c1ccccc1)=NCC2 (configuration not stated)
56 | 147 to 150 | Cc1cc(-c2nnn(C)n2)cc(C)c1OCCCCc1cc2cccnc2[nH]1
57 | 166 to 167 | CCc1noc(-c2cn(-c3cnccn3)cn2)n1
58 | 158 to 161 | COc1cc2ncnc(N3CCC(CN4CCCN(C(C)C)S4(=O)=O)CC3)c2cc1OC
59 | 136 to 138 | O=C(NCl)c1c(C(F)(F)F)cc(Cl)nc1Cl
60 | 56 to 60 | C#CCOCC1CCC(COCC#C)CC1 (configuration not stated)
61 | 147 to 148 | COc1nn(-c2ccc(C=O)cc2)nc1Cl
62 | 286 to 289 | CCOC(=O)c1cnc2cc(-c3ccccc3)sc2c1O
63 | 236 to 239 | Cc1c(N2CCN(C=O)C(C)C2)c(F)cc2c(=O)c(C(=O)O)cn(C3CC3)c12 (configuration not stated)
64 | 143 to 145 | Nc1ccc(C(=O)c2ccccc2)cc1CC(=O)O
65 | 148 | COc1cc(C)c(NCCO)cc1N
66 | 82 to 85 | CC(=O)OC(CCc1cc(C(C)(C)C)c(O)c(C(C)(C)C)c1)CCc1cc(C(C)(C)C)c(O)c(C(C)(C)C)c1
67 | 158 | CCOC1=NC(N)=C(C(=O)OC)C(c2cccc(Cl)c2)C1C(=O)OC (configuration not stated)
68 | 64.5 to 66 | CSC(=S)C12CC3CC(CC(C3)C1)C2
69 | 168 to 170 | COc1cc2c(Nc3cccc(C)c3)ncnc2cc1OCCN1CCOCC1
70 | 68 to 71 | CN1C(=O)N(CCCC(NS(=O)(=O)c2ccc(-c3ccc(Cl)cc3)cc2)C(=O)O)C(=O)C1(C)C (configuration not stated)
71 | 95 to 97 | CC1(COc2ccc(OCCNCC(O)COc3ccccc3)cc2)OCCO1 (configuration not stated)
72 | 236 to 239 | COc1ccc(-c2ccc3c(C(=O)c4ccn5c4C(C)(C)SC5c4cccnc4)c[nH]c3c2)cc1 (configuration not stated)
73 | 152 to 153 | CCCCCCC(CC(=O)Nc1cc(C(N)=O)ccc1C(C)(C)C)c1ccc(OC)cc1OC (configuration not stated)
74 | 168 | Nc1ccccc1C(=O)C=Cc1ccncc1
75 | 122 to 123 | CSC(=O)c1cccc2c1[nH]c1ccccc12

Row | melting point [°C] | Compound
76 | 243 to 245 | Cc1ccc(-c2nc3sc4ccccc4n3c2CC(N)=O)s1
77 | 77 to 79 | CCCc1c(OCCCOc2ccc3c(c2CCC)OC(C)(CCC(N)=O)CC3=O)ccc(C(C)=O)c1O (configuration not stated)
78 | 61 | N#CC(OC1CCCCO1)c1ccc(Cl)c(Cl)c1 (configuration not stated)
79 | 84 to 86 | CCCCCCCCP(=O)(O)CCCCCCCC
80 | 157 | O=C(O)CCc1cc2cc(Cl)ccc2n1S(=O)(=O)c1ccc2c(c1)CCN2
81 | 108 to 110 | OCC(O)COC(c1ccccc1)(c1ccccc1)c1ccccc1 (configuration not stated)
82 | 154 to 156 | CCN1CC(=O)Nc2cc(NC3(C(N)=O)CC4CC3C=C4Cl)c(OC)cc2C1 (configuration not stated)
83 | 151 to 152 | CCOC(=O)c1c(S(=O)Cc2nccn2C)nc2cc(OC)c(OC)cc2c1-c1ccc(OC)c(OC)c1 (configuration not stated)
84 | 109 to 111 | N#Cc1cccc2c1ccn2-c1ncc(C(F)(F)F)cc1Cl
85 | 139 to 142 | Cn1cc(-c2cccc(C(F)(F)F)c2)c(=O)c(-c2ccc(Cl)cc2Cl)c1
86 | 89 to 91 | COc1ccc2cc(Br)cc(C)c2n1
87 | 205 | NCCNC(=S)Nc1c(Cl)cc([N+](=O)[O-])cc1Cl
88 | 137 to 139 | CCOC(=O)c1cnc2sccc2c1O
89 | 142 to 145 | N#CC(C#N)CC(=O)c1ccc(Cl)c(Cl)c1
90 | 176 to 177 | NNC(=O)C(Cl)c1cccc(Cl)n1 (configuration not stated)
91 | 170 to 172 | CCCCNS(=O)(=O)CC(O)C(O)C(CC1CCCCC1)NC(=O)c1ccnnc1 (configuration not stated)
92 | 99 to 105 | CN1CCN(c2cc(Cl)cc3c2c(=O)n(Cc2ccc(C#N)cc2)c(=O)n3Cc2ccccc2)CC1
93 | 213 | COc1ccc(-c2n[nH]c(=O)cc2-c2ccc(OC)c(F)c2)cc1
94 | 134 to 136 | Cn1cnnc1SCC(=O)C12CC3CC(CC(C3)C1)C2
95 | 130 | CC(=O)c1cccc(NC(=O)NCC(=O)N(CC(=O)N2CCCc3ccccc32)c2ccccc2)c1
96 | 51 | CC[C@H]1CC[C@H](c2ccc(CCc3ccc(OC(F)F)cc3)cc2)CC1
97 | 74 | CC(N=c1cccccc1NC(C)c1ccccc1)c1ccccc1 (configuration not stated)
98 | 139 to 140 | O=C(O)c1ccccc1OCCN1CCC(c2cn(CCC3COCCO3)c3ccccc23)CC1 (configuration not stated)
99 | 149 to 150 | CCCc1c(OCCCOc2ccc3c(c2CCC)OC(CCC(=O)O)CC3=O)ccc(C(C)=O)c1O (configuration not stated)
100 | 99 | Nc1ccc(Sc2ccccc2)cc1

Row | Compound | melting point [°C]
101 | CCCc1c(C(=O)C(C)C)c2ccc(C(N)=O)cc2n1Cc1ccccc1OC | 174 to 175
102 | O=C(CCl)c1cccnn1 | 104 to 106
